What all share (type): cell-based
One test relates to JAK1/TYK2. Kind of test: Cell level activity test of JAK1/TYK2 (IFN-α induced STAT3 phosphorylation in PBMC). To be noted: Homo sapiens; P-STAT3 by ELISA in PBMC, compound 1 h, IFN-α 5000 U/mL 15 min; read-out: IC50 nM (JAK 1 /TYK2). The method, then:
IFN-α can induce the phosphorylation of STAT3 downstream of JAK1/TYK2 in PBMC, and by measuring the level of STAT3 phosphorylation, the activity of the compound on JAK1/TYK2 at the cell level can be reflected.
Whole blood was collected from healthy subjects, anticoagulated with heparin sodium, and PBMC (human peripheral blood mononuclear cells) were extracted. PBMC were seeded in a 96-well culture plates at a density of 1*106/well. Positive wells and negative wells were added with the same volume of DMSO as the compound, and the final concentration of DMSO was 0.5%. The compounds were incubated with the cells at 37° C. for 1 h, and then stimulated by adding IFN-α at a final concentration of 5000 U/mL, an equal volume of medium was added to the negative wells, and incubated for 15 min. The cells were centrifuged to remove the supernatant, then lysed, and P-STAT3 was measured according to the instructions of the ELISA kit, the absorbance was read at 450 nm, and the IC50 value or inhibition rate was calculated.

A further test relates to P-STAT3. Kind of test: Effect of TYK2 inhibitor on P-STAT3 expression in PBMC induced by IFN-α (Table 3, P-STAT3 (h)). To be noted: Homo sapiens; P-STAT3 by ELISA, PBMC stimulated with IFN-α 5000 U/mL. The procedure:
Whole blood was collected from healthy subjects, anticoagulated with heparin sodium, and PBMC (human peripheral blood mononuclear cells) were extracted. PBMC were seeded in 96-well culture plates at a density of 1*106/well. The initial concentration of the positive drug BMS986165 was 1000 nM, after diluting 10 times, the positive drug BMS986165 was diluted 8 concentrations by 3 times; the concentration of the other tested compounds was 333 nM. Positive wells and negative wells were added with the same volume of DMSO as the compound, and the final concentration of DMSO was 0.5%. After the compound was added, the cells were incubated at 37° C. for 1 h, and then stimulated by the addition of IFN-α at a final concentration of 5000 U/mL. An equal volume of medium was added to the negative wells and incubated for 15 min. The cells were centrifuged to remove the supernatant, and lysed, and the P-STAT3 was measured according to the instructions of the ELISA kit, the absorbance was read at 450 nm, and the IC50 value or inhibition rate was calculated.
CTLL-2, P-STAT3 and TF-1 cells were seeded in a 96-well culture plate at a density of 20,000/well with 90 µL per well, and the blank well was an equal amount of complete medium. […]
Background: An ELISA detects its analyte on a solid surface through an enzyme-linked reagent.

Another test has as its system TF-1 cells. Nature of the test: Inhibitory effect on TF-1 cell proliferation. Particulars: Homo sapiens, alamar blue, read-out: IC50 (nM) TF-1 (h). The method, then:
TF-1 cells were seeded in a 96-well culture plate at a density of 20,000/well with 80 µL per well, the blank well was an equal amount of complete medium, and 10 µL of the compound dilution solution was added to the 96-well plate B1-11, C1-11, E1-11, F1-11, positive and negative wells were added with 5% DMSO medium equal to the volume of the compound, and the final concentration of DMSO was 0.5%. After 30 min, GM-CSF with a final concentration of 2 ng/mL was added to rows B, C, and D (positive wells), and the remaining wells (rows E, F, and G) were added with the same volume of medium as cytokines (negative wells). After incubation for 44 h at 37° C. in 5% CO2, alamar blue was added, the plate was incubated for 4 h, the fluorescence intensity of each well under the conditions of […], 580 nm wavelength was measured, and the IC50 value was calculated.
CTLL-2, P-STAT3 and TF-1 cells were seeded in a 96-well culture plate at a density of 20,000/well with 90 µL per well, and the blank well was an equal amount of complete medium. 10 ul of different compound dilutions were added to each plate row BC, DE, and FG, and 5% DMSO medium with equal volume of the compound was added to positive wells and negative wells, and the final concentration of DMSO was 0.5%. […]

A further test deals with CTLL-2 cells. Kind of test: Inhibitory effect on CTLL-2 cell proliferation. Particulars: alamar blue, read-out: IC50 (nM) CTLL-2 (h). The procedure: CTLL-2, P-STAT3 and TF-1 cells were seeded in a 96-well culture plate at a density of 20,000/well with 90 µL per well, and the blank well was an equal amount of complete medium. 10 ul of different compound dilutions were added to each plate row BC, DE, and FG, and 5% DMSO medium with equal volume of the compound was added to positive wells and negative wells, and the final concentration of DMSO was 0.5%. After incubating in a 37° C. incubator for 20 h, alamar blue was added, the plate was incubated for 4 h, the fluorescence intensity of each well under the conditions of […], 580 nm wavelength was measured, and the IC50 value was calculated.
Background: The colour change of resazurin is a common sign of viable cells or microbes.

As for `CC(=O)Nc1cc2c(-c3ccc4c(n3)C3(CCOC3)OCC4)cn(C)c2cn1` (stereo not shown) [Example 3, N-(1-Methyl-3-(4,5,5′,6′-Tetrahydro-2H-Spiro[Furan-3,8′-Pyrano[3,4-b]Pyridine]-2′-yl)-1H-Pyrrolo[2,3-c]Pyridin-5-yl)Acetamide], the IC50 was 21.4 nM in the test on JAK1/TYK2, 21.4 nM with P-STAT3, 5290 nM in the test with TF-1 cells and greater than 10000 nM with CTLL-2 cells.
